Where two headings read alike, the source gives them in different places.
Assays:
[1] = system: Escherichia coli expressing NDM-1 (CLB30016); assay: Antibiotic potentiation activity: synergistic concentration (MITC95) with imipenem, OD600 growth; format: cell-based
Protocol: (§1) Antibiotic Potentiation Activity: Determination of Synergistic Concentration
(§2) The bacterial strains tested included the clinical strains Escherichia coli expressing NDM-1 (CLB30005, CLB30016), Serratia marcescens expressing IMP-1 (CL5741), and Klebsiella pneumoniae expressing VIM-1 (IHMA599644) Inhibitor activity was measured in the presence and absence of imipenem in a 384-well microplate.
(§3) The clinical strains CLB30016, CL5741 and IHMA599644 were grown on trypticase soy agar containing 5% sheep's blood. The clinical strain CLB30005 was grown on Mueller Hinton broth agar containing 8 ug/ml imipenem. The bacteria on agar plates were incubated at 35° C. with humidity overnight. The following day, individual colonies from each clinical strain were picked and resuspended in 5 ml saline to attain an OD600 of 0.14, 0.11, 0.15 and 0.13, for CLB30005, CLB30016, CL5741 and IHMA599644, respectively. These were further diluted 1:100 into 1.1×CAMHB and used to inoculate the test wells as described below.
(§4) Imipenem in 10 mM 3-(N-morpholino)propanesulfonic acid (MOPS, pH 7) was stored in single use aliquots at −80° C. […] On the day of the assay, 4 μl of antibiotic was added to 45 ul of bacteria followed by 1 μl of test compound and mixed by pipetting and with an orbital shaker. The concentration of antibiotic used in the assay was 4 μg/ml, or optionally 1 μg/ml. Microplates were covered and incubated at 35° C. for 22 hours to 24 hours. At the end of the incubation, absorbance was determined using a spectrophotometer.

[2] = system: Klebsiella pneumoniae expressing VIM-1 (IHMA599644); assay: as above; format: cell-based
Protocol: as §1, §2, §3, §4

[3] = system: Serratia marcescens expressing IMP-1 (CL5741); assay: as above; format: cell-based
Protocol: as §1, §2, §3, §4

[4] = target: VIM-1 (Pseudomonas aeruginosa (strain ATCC 15692 / DSM 22644 / CIP 104116 / JCM 14847 / LMG 12228 / 1C / PRS 101 / PAO1), UniProt A0A0F7KYQ8); assay: Enzyme activity: determination of IC50, fluorescence assay with CCF2-FA substrate (VIM-1); format: biochemical; conditions: VIM-1 IC50, fluorescence assay with CCF2-FA substrate
[5] = target: IMP-1 (Serratia marcescens, UniProt P52699); assay: biochemical; format: biochemical; conditions: read-out: IMP-1 IC50
Sequence of IMP-1 (P52699 whole entry, looked up): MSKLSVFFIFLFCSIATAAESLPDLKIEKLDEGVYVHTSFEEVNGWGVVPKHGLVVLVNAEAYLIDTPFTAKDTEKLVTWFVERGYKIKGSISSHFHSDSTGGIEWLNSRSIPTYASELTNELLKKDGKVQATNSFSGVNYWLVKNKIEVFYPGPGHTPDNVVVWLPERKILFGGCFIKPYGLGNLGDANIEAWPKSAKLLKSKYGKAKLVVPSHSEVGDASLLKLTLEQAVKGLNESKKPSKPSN

[6] = target: NDM-1 (Klebsiella pneumoniae, UniProt C7C422); assay: biochemical; format: biochemical; conditions: read-out: NDM-1 IC50
Sequence of NDM-1 (C7C422 whole entry, looked up, species assumed): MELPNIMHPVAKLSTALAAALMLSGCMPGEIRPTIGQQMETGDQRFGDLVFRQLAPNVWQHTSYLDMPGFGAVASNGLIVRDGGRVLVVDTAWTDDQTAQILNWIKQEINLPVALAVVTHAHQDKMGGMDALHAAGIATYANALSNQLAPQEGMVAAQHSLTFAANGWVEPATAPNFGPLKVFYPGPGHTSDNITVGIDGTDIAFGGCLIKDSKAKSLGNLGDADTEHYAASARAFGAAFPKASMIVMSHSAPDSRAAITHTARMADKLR

[7] = concentration giving 95% inhibition of bacterial growth
[8] = IMP-1 enzyme, CCF2-FA fluorescence assay
[9] = Escherichia coli expressing NDM-1 (CLB30016), 95% growth inhibition
[10] = Klebsiella pneumoniae expressing VIM-1 (IHMA599644), 95% growth inhibition
[11] = Serratia marcescens expressing IMP-1 (CL5741), 95% growth inhibition
[12] = NDM-1 enzyme, CCF2-FA fluorescence assay
[13] = IMP-1 enzyme, CCF2-FA substrate
[14] = (CLB30016, NDM-1), 95% growth inhibition
[15] = Klebsiella pneumoniae IHMA599644 (VIM-1), 95% growth inhibition
[16] = Serratia marcescens CL5741 (IMP-1), 95% growth inhibition
[17] = NDM-1 enzyme, CCF2-FA substrate
[18] = fluorescence assay with CCF2-FA substrate
[19] = CLB30016 (NDM-1), 95% inhibition of bacterial growth
[20] = IHMA599644 (VIM-1), 95% inhibition of bacterial growth
[21] = CL5741 (IMP-1), 95% inhibition of bacterial growth

SMILES	IC50 [5, 13] [nM]	Escherichia coli MITC95 [1, 14] [µM]	Klebsiella pneumoniae MITC95 [2, 15] [µM]	Serratia marcescens MITC95 [3, 16] [µM]	IC50 [6, 17] [nM]	IC50 [5, 18] [nM]	Escherichia coli MITC95 [1, 19] [µM]	Klebsiella pneumoniae MITC95 [2, 20] [µM]	Serratia marcescens MITC95 [3, 21] [µM]	IC50 [6, 18] [nM]	also measured
CS(=O)(=O)NC1CCC(c2cccc(S(N)(=O)=O)c2-c2nn[nH]n2)CC1 (centres unmarked) [Example 169, 3-(4-(methylsulfonamido)cyclohexyl)-2-(2H-tetrazol-5-yl)benzenesulfonamide]	–	–	–	–	–	–	–	–	–	–	Escherichia coli expressing NDM-1 (CLB 30016) MITC95 [1, 7]: 2.344 µM; Klebsiella pneumoniae expressing VIM-1 (IHMA 599644) MITC95 [2, 7]: 50 µM; Serratia marcescens expressing IMP-1 (CL5741) MITC95 [3, 7]: 3.125 µM; IC50 [4]: 57.6 nM
NS(=O)(=O)c1c(C(F)(F)F)ccc(-c2ccc3nccn3c2)c1-c1nnn[nH]1 [Example 481, 3-imidazo[1,2-a]pyridin-6-yl-2-(1H-tetrazol-5-yl)-6-(trifluoromethyl)benzenesulfonamide]	–	–	–	–	–	–	–	–	–	–	IC50 [5, 8]: 7.11 nM; Escherichia coli MITC95 [1, 9]: 0.125 µM; Klebsiella pneumoniae MITC95 [2, 10]: 1.922 µM; Serratia marcescens MITC95 [3, 11]: 0.543 µM; IC50 [6, 12]: 1.46 nM
NS(=O)(=O)c1c(C(F)(F)F)ccc(-c2ccc3nccn3c2)c1-c1nnn[nH]1 [Example 484, 3-(Imidazo[1,2-a]pyridin-6-yl)-2-(1H-tetrazol-5-yl)-6-(trifluoromethyl)benzenesulfonamide]	–	–	–	–	–	–	–	–	–	–	IC50 [5, 8]: 6.58 nM; Escherichia coli MITC95 [1, 9]: 0.25 µM; Klebsiella pneumoniae MITC95 [2, 10]: 1.708 µM; Serratia marcescens MITC95 [3, 11]: 0.3828 µM; IC50 [6, 12]: 1.22 nM
NS(=O)(=O)c1c(C(F)(F)F)ccc(C2CCC2)c1-c1nnn[nH]1 [Example 492, 3-cyclobutyl-2-(1H-tetrazol-5-yl)-6-(trifluoromethyl)benzenesulfonamide]	16	3.125	12.5	0.3906	17.3	–	–	–	–	–	–
Nc1nc2cncc(-c3ccc(C(F)(F)F)c(S(N)(=O)=O)c3-c3nnn[nH]3)c2[nH]1 [Example 571, 3-(2-amino-1H-imidazo[4,5-c]pyridin-7-yl)-2-(1H-tetrazol-5-yl)-6-(trifluoromethyl)benzenesulfonamide]	14.8	0.7813	6.25	3.125	1.71	–	–	–	–	–	–
NS(=O)(=O)c1c(CC2CCNCC2)ccc(-c2ccc(C3CCNC3)cc2)c1-c1nn[nH]n1 (centres unmarked) [Example 588, 4-(piperidin-4-ylmethyl)-4′-(pyrrolidin-3-yl)-2-(2H-tetrazol-5-yl)-[1,1′-biphenyl]-3-sulfonamide]	28.8	1.563	1.563	3.125	6.27	–	–	–	–	–	–
NS(=O)(=O)c1cccc(-c2ccc(NC3CCNC3)nc2)c1-c1nnn[nH]1 (centres unmarked) [Example 628, 3-[6-(pyrrolidin-3-ylamino)-3-pyridyl]-2-(1H-tetrazol-5-yl)benzenesulfonamide]	650	0.9766	12.5	12.5	45	–	–	–	–	–	–
NCCNc1ccc(-c2cccc(S(N)(=O)=O)c2-c2nnn[nH]2)cn1 [Example 634, 3-[6-(2-aminoethylamino)-3-pyridyl]-2-(1H-tetrazol-5-yl)benzenesulfonamide]	1280	0.5859	6.25	18.75	14.1	–	–	–	–	–	–
NS(=O)(=O)c1c(C(F)(F)F)ccc(N2CCN3C(=O)OCC3C2)c1-c1nnn[nH]1 (centres unmarked) [Example 667, 3-(3-oxotetrahydro[1,3]oxazolo[3,4-a]pyrazin-7(1H)-yl)-2-(1H-tetrazol-5-yl)-6-(trifluoromethyl)benzenesulfonamide]	75	3.125	9.375	2.344	19.7	–	–	–	–	–	–
NS(=O)(=O)c1c(C(F)(F)F)ccc([C@H]2CC[C@H](NC3CC[C@H]4NCC[C@@H]34)CC2)c1-c1nnn[nH]1 (stereo partly drawn) [Example 692, 3-{4-[(3aR,6aR)-octahydrocyclopenta[b]pyrrol-4-ylamino]cyclohexyl}-2-(1H-tetrazol-5-yl)-6-(trifluoromethyl)benzene sulfonamide]	19.8	1.563	6.25	3.125	6.36	–	–	–	–	–	–
NC1CCN(C2CCN(c3ccc(C(F)(F)F)c(S(N)(=O)=O)c3-c3nnn[nH]3)CC2)C1 (centres unmarked) [Example 768, 3-[4-(3-aminopyrrolidin-1-yl)piperidin-1-yl]-2-(1H-tetrazol-5-yl)-6-(trifluoromethyl) benzenesulfonamide]	–	–	–	–	–	36.7	12.5	3.125	6.25	24.6	–
NC1CCCC1N1CCC(c2ccc(-c3ccc(C(F)(F)F)c(S(N)(=O)=O)c3-c3nnn[nH]3)cc2)CC1 (centres unmarked) [Example 791, 4′-[1-(2-aminocyclopentyl)piperidin-4-yl]-2-(1H-tetrazol-5-yl)-4-(trifluoromethyl)biphenyl-3-sulfonamide]	–	–	–	–	–	1.2	0.7813	50	1.563	6.26	–
NC1CCCC(N2CCC(c3ccc(-c4ccc(C(F)(F)F)c(S(N)(=O)=O)c4-c4nnn[nH]4)cc3)CC2)C1 (centres unmarked) [Example 798, 4′-[1-(3-aminocyclohexyl)piperidin-4-yl]-2-(1H-tetrazol-5-yl)-4-(trifluoromethyl)biphenyl-3-sulfonamide]	–	–	–	–	–	2.35	1.563	25	3.125	6.05	–
NS(=O)(=O)c1c(C(F)(F)F)ccc(-c2ccc(C3CN(CC4CCNCC4)C3)cc2)c1-c1nnn[nH]1 [Example 804, 4′-[1-(piperidin-4-ylmethyl)azetidin-3-yl]-2-(1H-tetrazol-5-yl)-4-(trifluoromethyl)biphenyl-3-sulfonamide]	–	–	–	–	–	5.78	3.125	50	6.25	3.85	–
NC1CCC(N2CC(c3ccc(-c4ccc(C(F)(F)F)c(S(N)(=O)=O)c4-c4nnn[nH]4)cc3)C2)CC1 (centres unmarked) [Example 809, 4′-[1-(4-aminocyclohexyl)azetidin-3-yl]-2-(1H-tetrazol-5-yl)-4-(trifluoromethyl)biphenyl-3-sulfonamide]	–	–	–	–	–	11.3	3.125	50	6.25	4.02	–
